Test results reported in patent US8721963B2, “Cold sterilization of tissue engineering scaffolds with compressed carbon dioxide” (University of South Carolina, priority 2010, dated 2014).

Key:
[1] = test system: Staphylococcus aureus (S. aureus) (ATCC 25923); experiment: Inactivation of S. aureus embedded in model hydrogel by SC-CO2 treatment (plate counting); format: cell-based; conditions: 27.6 MPa, 40° C.
Method: Staphylococcus aureus (S. aureus) (ATCC 25923) and Escherichia coli (E. coli) (ATCC 15597) were used as test microorganisms embedded in the hydrogel to investigate the bacteriocidal activity of pure SC-CO2 or SC-CO2+H2O2. Suspensions of S. aureus and E. coli were prepared for inoculation of the hydrogel. Cultures of these bacteria were preserved on DifcoTM […] soy agar and stored in Petri dishes inside of a refrigerator at 4° C. A fresh colony was transferred aseptically from the agar culture plate into a culture tube containing 30 g/L of sterile tryptone soy broth (TSB). The bacteria were grown to a logarithmic phase in the TSB at 35° C. for 24 hours (Cappuccino and Sherman 2001). A fresh bacterial culture was prepared before every experiment to ensure cell viability. Both S. aureus and E. coli bacteria suspensions were diluted after incubation to a concentration of approximately 107 colony forming units per milliliter (cfu/mL). A Petroff Hausser counting chamber was used to quantify the cfu count in the diluted samples. Also, a standard plate counting technique was followed to verify the original number of cfu. The final number of S. aureus or E. coli generally ranged from 7.6×106 to 2.3×10^8 cfu/mL. The hydrogel was hydrated with the diluted bacteria suspension of either S. aureus or E. coli. For CO2 sterilization experiments, the model gel was hydrated with the diluted bacteria suspension. Typically, 0.1 g of dry powder (absorption capacity of 200 mL H2O/g) was hydrated with steam autoclaved DI water. The hydrated powder was left overnight inside of a refrigerator at 4° C. About 3 g of the completely incorporated hydrated gel were then transferred into a polyallomer centrifuge tube for the CO2 treatment, to be described subsequently. […] A pulverization procedure was followed to quantify the amount of bacteria in the inoculated hydrogel. Bacteria were dislodged from the gel by pulverizing in a Stomacher 400 Circulator (Seward Ltd., United Kingdom) for 10 minutes at 230 revolutions per minute (rpm). The degree of killing was quantified with a standard plate counting technique. The log reduction of bacteria (S. aureus or E. coli) was calculated with equation (1), [formula] For use as negative controls, a quantified amount of inoculated hydrogel (with either S. aureus or E. coli) in a polyallomer centrifuge tube was immersed in a PolyScience laboratory temperature bath (model 9105) at 40° C. for 4 hours. The inoculated hydrogel was removed from the bath, pulverized in the Stomacher 400, and the degree of killing was quantified using the standard plate counting technique.

[2] = test system: Escherichia coli (E. coli) (ATCC 15597); experiment: Inactivation of E. coli embedded in model hydrogel by SC-CO2 treatment (plate counting); format: cell-based; conditions: 27.6 MPa, 40° C., 4 hours
Method: Staphylococcus aureus (S. aureus) (ATCC 25923) and Escherichia coli (E. coli) (ATCC 15597) were used as test microorganisms embedded in the hydrogel to investigate the bacteriocidal activity of pure SC-CO2 or SC-CO2+H2O2. Suspensions of S. aureus and E. coli were prepared for inoculation of the hydrogel. Cultures of these bacteria were preserved on DifcoTM […] soy agar and stored in Petri dishes inside of a refrigerator at 4° C. A fresh colony was transferred aseptically from the agar culture plate into a culture tube containing 30 g/L of sterile tryptone soy broth (TSB). The bacteria were grown to a logarithmic phase in the TSB at 35° C. for 24 hours (Cappuccino and Sherman 2001). A fresh bacterial culture was prepared before every experiment to ensure cell viability. […] A Petroff Hausser counting chamber was used to quantify the cfu count in the diluted samples. […] A pulverization procedure was followed to quantify the amount of bacteria in the inoculated hydrogel. […] The degree of killing was quantified with a standard plate counting technique. The log reduction of bacteria (S. aureus or E. coli) was calculated with equation (1), [formula] For use as negative controls, a quantified amount of inoculated hydrogel (with either S. aureus or E. coli) in a polyallomer centrifuge tube was immersed in a PolyScience laboratory temperature bath (model 9105) at 40° C. for 4 hours. […]

B. pumilus spores = conditions: 40° C., 27.58 MPa, 4 hours; cited from earlier work
B. atrophaeus spores = conditions: 40° C., 27.58 MPa, 4 hours; cited from earlier work
[3] = test system: G. stearothermophilus spores; conditions: 40° C., 27.58 MPa, 4 hours; cited from earlier work

In the case of O=C=O [pure SC-CO2, carbon dioxide], the “killing of S. aureus” value ([1]; in hydrogel, 4 hours) is reported as “Complete killing”, the “D-value (D40) of S. aureus” value ([1]; in hydrogel) is reported as 4.6 min and the “time required to obtain 6-log reduction of S. aureus” value ([1]; in hydrogel) is reported as “about 27.4 minutes”. For the same compound, the “log-reduction of S. aureus” value ([1]; in hydrogel, 10 minutes) was 1.94 log, the “log-reduction of S. aureus” value ([1]; in hydrogel, 15 minutes) was 3.42 log and the “log-reduction of S. aureus” value ([1]; in hydrogel, 20 minutes) was 4.13 log. The “killing of S. aureus” value ([1]; in hydrogel, 30 minutes) was “complete kill”, the “killing of S. aureus” value ([1]; in hydrogel, 60 minutes) was “complete kill” and the “average log-reduction of S. aureus” value ([1]; in poly(acrylic acid-co-acrylamide) hydrogel, 4 hours) was 7.72 log. For the same compound, the “killing of E. coli” value ([2]; in hydrogel) was “Complete killing”, the “average log-reduction of E. coli” value ([2]; in poly(acrylic acid-co-acrylamide) hydrogel) was 7.93 log and the “log reduction of B. pumilus spores” value (B. pumilus spores) was 6 log. For the same compound, the “log reduction of B. atrophaeus spores” value (B. atrophaeus spores) was 6 log and the “log reduction of G. stearothermophilus spores” value [3] was 6 log.
